Like-named read-outs stand apart in the source and are kept apart here.
Tests used:
glyphosate tolerant corn = conditions: postemergence
Procedure: (§2) The soil was fortified with fertilizer (10-10-10) prior to seeding The compounds were dissolved in water and applied with a carrier volume of 200 L/ha. All treatments were replicated four times.
(§3) The pots were placed in a greenhouse and maintained under good growing conditions. The greenhouse evironmental systems provided the plants with natural and artificial lighting to attaim 12 hours of light per day. Day and night temperatures were maintained at 29° and 21° C. respectively.
(§4) Plants were grown to the V2 or 2 leaf stage prior to compound application. Plants were sprayed 30.5cm (12 inches) above the foliage with the spray solution as prepared for the pre-emergence test. Treated plants were then returned to a greenhouse and watered daily without wetting the foliage. Injury to plants was evaluated 5 days after treatment (“CDAT”) and 13 DAT. Injury was evaluated as percent control being the total injury to the plants due to all factors including: inhibited emergence, stunting, malformation, albinism, chlorosis, and other types of plant injury.

[1] = tested on: glyphosate tolerant soybeans; experiment: Greenhouse postemergence injury to glyphosate tolerant soybeans, glyphosate trimesium and bentazon (Example 2)
Procedure: as §2, §3, §4

[2] = tested on: glyphosate tolerant soybeans; conditions: postemergence
Procedure: as §2, §3, §4

[3] = tested on: Xanthium strumarium (XANST); experiment: Field plot injury rating (Example 3); assay type: in vivo; conditions: Glyphosate TMS 1.5 lb/acre, with ammonium sulfate
Text: (§1) In plots located in Champaign, Ill. (three replications), seeds of the following weed species were planted: Digitaria sanguinalis (“DIGSA”); Setaria faberi (“SETFA”); Setaria glauca (“SETLU”);Echinochloa crusgalli a crusgalli (“ECHCG”); Sorghum vulgare (“SORVU”); Sida spinosa (“SIDSP”); Ipomoea hederacea (“IPOHE”); Amaranthus retroflexus (“AMARE”); Xanthium strumarium (“XANST”); Helianthus annuns (“HELAN”) and Abutilon theophrasti (“ABUTH”). The plots were also planted with two varieties of glyphosate tolerant soybeans (“GLXMA P9294” and “GLXMA P9333”). When the soybeans had reached the 4-5 trifoliate stage, the plots were treated with glyphosate trimesium alone or glyphosate trimesium+bentazon, at the application rates indicated in Table 3. Injury to the species in each plot was tated 7 and 18 dats after application (DAA) of the glyphosate trimesium with or without bentazon and the results are shown in Table 3. The results shown in Table 3 are the mean of three replications.

[4] = tested on: Echinochloa crusgalli (ECHCG); experiment: Field plot injury rating (Example 3); assay type: in vivo; conditions: Glyphosate TMS 1.5 lb/acre, with ammonium sulfate
Text: as §1

Sorghum vulgare (SORVU) = experiment: Field plot injury rating (Example 3); assay type: in vivo; conditions: Glyphosate TMS 1.5 lb/acre, with ammonium sulfate
Text: as §1

Setaria faberi (SETFA) = experiment: Field plot injury rating (Example 3); assay type: in vivo; conditions: Glyphosate TMS 1.5 lb/acre, with ammonium sulfate
Text: as §1

[5] = tested on: Abutilon theophrasti (ABUTH); experiment: Field plot injury rating (Example 3); assay type: in vivo; conditions: Glyphosate TMS 1.5 lb/acre, with ammonium sulfate
Text: as §1

[6] = tested on: Helianthus annuns (HELAN); experiment: Field plot injury rating (Example 3); assay type: in vivo; conditions: Glyphosate TMS 1.5 lb/acre, with ammonium sulfate
Text: as §1

Setaria glauca (SETLU) = experiment: Field plot injury rating (Example 3); assay type: in vivo; conditions: Glyphosate TMS 1.5 lb/acre, with ammonium sulfate
Text: as §1

[7] = tested on: Amaranthus retroflexus (AMARE); experiment: Field plot injury rating (Example 3); assay type: in vivo; conditions: Glyphosate TMS 1.5 lb/acre, with ammonium sulfate
Text: as §1

Sida spinosa (SIDSP) = experiment: Field plot injury rating (Example 3); assay type: in vivo; conditions: Glyphosate TMS 1.5 lb/acre, with ammonium sulfate
Text: as §1

[8] = tested on: Digitaria sanguinalis (DIGSA); experiment: Field plot injury rating (Example 3); assay type: in vivo; conditions: Glyphosate TMS 1.5 lb/acre, with ammonium sulfate
Text: as §1

[9] = tested on: Ipomoea hederacea (IPOHE); experiment: Field plot injury rating (Example 3); assay type: in vivo; conditions: Glyphosate TMS 1.5 lb/acre, with ammonium sulfate
Text: as §1

GLXMA P9294 = experiment: Field plot injury rating (Example 3); assay type: in vivo, glyphosate tolerant soybeans; conditions: Glyphosate TMS 1.5 lb/acre, with ammonium sulfate
Text: as §1

GLXMA P9333 = experiment: Field plot injury rating (Example 3); assay type: in vivo, glyphosate tolerant soybeans; conditions: Glyphosate TMS 1.5 lb/acre, with ammonium sulfate
Text: as §1

[10] = Glyphosate trimesium 750 g/ha, Bentazon 0 g/ha
[11] = Glyphosate trimesium 1500 g/ha, Bentazon 0 g/ha
[12] = Glyphosate trimesium 3000 g/ha, Bentazon 0 g/ha

CC(C)N1C(=O)c2ccccc2NS1(=O)=O [Bentazon, bentazon]
Corn injury (percent control) 5 DAT (glyphosate tolerant corn; TMS 0 g/ha, Bentazon 250 g/ha): 0%
Corn injury (percent control) 13 DAT (glyphosate tolerant corn; TMS 0 g/ha, Bentazon 250 g/ha): 0%
Corn injury (percent control) 5 DAT (glyphosate tolerant corn; TMS 0 g/ha, Bentazon 500 g/ha): 0%
Corn injury (percent control) 13 DAT (glyphosate tolerant corn; TMS 0 g/ha, Bentazon 500 g/ha): 0%
Soybean injury (percent control) 5 DAT ([1]; Glyphosate trimesium 0 g/ha, Bentazon 4 g/ha): 0%
Soybean injury (percent control) 5 DAT ([1]; Glyphosate trimesium 0 g/ha, Bentazon 8 g/ha): 0%
Soybean injury (percent control) 5 DAT ([1]; Glyphosate trimesium 0 g/ha, Bentazon 16 g/ha): 0%
Soybean injury (percent control) 5 DAT ([1]; Glyphosate trimesium 0 g/ha, Bentazon 32 g/ha): 0%
Soybean injury (percent control) 5 DAT ([1]; Glyphosate trimesium 0 g/ha, Bentazon 64 g/ha): 0%
Soybean injury (percent control) 5 DAT ([2]; TMS 0 g/ha, Bentazon 250 g/ha): 2%
Soybean injury (percent control) 5 DAT ([2]; TMS 0 g/ha, Bentazon 500 g/ha): 8%

C[S+](C)C.O=C([O-])CNCP(=O)(O)O [Glyphosate trimesium, trimethylsulphonium salt of N-phosphonomethylglycine]
Injury XANST 7 DAA ([3]; 7 DAA): 99
Injury XANST 18 DAA ([3]; 18 DAA): 100
Injury ECHCG 7 DAA ([4]; 7 DAA): 67
Injury ECHCG 18 DAA ([4]; 18 DAA): 94
Injury SORVU 7 DAA (Sorghum vulgare (SORVU); 7 DAA): 93
Injury SORVU 18 DAA (Sorghum vulgare (SORVU); 18 DAA): 100
Injury SETFA 7 DAA (Setaria faberi (SETFA); 7 DAA): 96
Injury SETFA 18 DAA (Setaria faberi (SETFA); 18 DAA): 100
Injury ABUTH 7 DAA ([5]; 7 DAA): 40
Injury ABUTH 18 DAA ([5]; 18 DAA): 80
Injury HELAN 7 DAA ([6]; 7 DAA): 99
Injury HELAN 18 DAA ([6]; 18 DAA): 100
Injury SETLU 7 DAA (Setaria glauca (SETLU); 7 DAA): 95
Injury SETLU 18 DAA (Setaria glauca (SETLU); 18 DAA): 100
Injury AMARE 7 DAA ([7]; 7 DAA): 100
Injury AMARE 18 DAA ([7]; 18 DAA): 100
Injury SIDSP 7 DAA (Sida spinosa (SIDSP); 7 DAA): 60
Injury SIDSP 18 DAA (Sida spinosa (SIDSP); 18 DAA): 83
Injury DIGSA 7 DAA ([8]; 7 DAA): 99
Injury DIGSA 18 DAA ([8]; 18 DAA): 100
Injury IPOHE 7 DAA ([9]; 7 DAA): 43
Injury IPOHE 18 DAA ([9]; 18 DAA): 68
Soybean injury (percent control) 5 DAT [1, 10]: 13%
Soybean injury (percent control) 13 DAT [1, 10]: 7%
Soybean injury (percent control) 5 DAT [1, 11]: 37%
Soybean injury (percent control) 13 DAT [1, 11]: 27%
Soybean injury (percent control) 5 DAT [1, 12]: 58%
Soybean injury (percent control) 13 DAT [1, 12]: 35%
Injury GLXMA P9294 7 DAA (GLXMA P9294; 7 DAA): 8
Injury GLXMA P9294 18 DAA (GLXMA P9294; 18 DAA): 9
Injury GLXMA P9333 7 DAA (GLXMA P9333; 7 DAA): 5
Injury GLXMA P9333 18 DAA (GLXMA P9333; 18 DAA): 6

C[S+](C)C.[Cl-] [TMS, trimethylsulphonium chloride]
Corn injury (percent control) 5 DAT (glyphosate tolerant corn; TMS 420 g/ha, Bentazon 0 g/ha): 14%
Corn injury (percent control) 13 DAT (glyphosate tolerant corn; TMS 420 g/ha, Bentazon 0 g/ha): 48%
Corn injury (percent control) 5 DAT (glyphosate tolerant corn; TMS 840 g/ha, Bentazon 0 g/ha): 19%
Corn injury (percent control) 13 DAT (glyphosate tolerant corn; TMS 840 g/ha, Bentazon 0 g/ha): 60%
Soybean injury (percent control) 5 DAT ([2]; TMS 420 g/ha, Bentazon 0 g/ha): 15%
Soybean injury (percent control) 13 DAT ([2]; TMS 420 g/ha, Bentazon 0 g/ha): 13%
Soybean injury (percent control) 5 DAT ([2]; TMS 840 g/ha, Bentazon 0 g/ha): 24%
Soybean injury (percent control) 13 DAT ([2]; TMS 840 g/ha, Bentazon 0 g/ha): 18%
